The values that follow come from paper PMC4493701, “Quantitative and qualitative analysis of the novel antitumor 1,3,4-oxadiazole derivative (GLB) and its metabolites using HPLC-UV and UPLC-QTOF-MS” (Scientific Reports, 2015).

Data set [1] is described as follows: Stability of GLB in rat plasma QC samples under storage and processing conditions (HPLC-UV). In kind it is in vitro ADME. As to conditions: for Measured concentration / Accuracy (RE, %): rat plasma. The procedure: The stability of GLB in rat plasma was determined by analyzing QC samples that was stored in different conditions, including: 1) room-temperature, 2) light irradiation for 24 hours, 3) post-preparation (the extracted samples stored at 4 °C for 48 hours and one week), 4) three cycles of freeze and thaw (freezing at −20 °C for 24 hours and thawing at room temperature), 5) long-term stored in −20 °C for up to 2 weeks, 1 month and 3 months, respectively. All the QC samples for stability assessment were analyzed in triplicate.
Under manifold storage and processing conditions, the stability of GLB in rat plasma was evaluated by analyzing three replicates for QC samples at 0.025, 0.5 and 4 μg/mL.
Calibration standard solutions were prepared by adding 25 μL of working standard solutions of GLB and IS into 375 μL blank rat plasma to achieve final concentrations of GLB of 0.01, 0.025, 0.05, 0.1, 0.5, 1, 4 and 8 μg/mL, and IS concentration of 1 μg/mL, respectively. QC samples were prepared in the same way using the low, medium and high concentrations of 0.025, 0.5 and 4 μg/mL, respectively.

A further data set relates to thymidine phosphorylase. Conditions: cited from earlier work.
Data set [2] relates to tumor angiogenesis, growth and metastasis. More on the design: method as in PMID 15960897. Conditions: in vivo; cited from earlier work.
Data set [3] is described as follows: Identification of GLB metabolites in rat plasma by UPLC-ESI-QTOF-MS. Type of data set: in vivo. Conditions: rat plasma after oral GLB 100 mg/kg; tentative, no metabolite standards. The source says:
Because of two unknown chromatographic peaks were detected by HPLC after oral dose GLB in rat plasma, their structures were further identified and the metabolic pathways were investigated using UPLC-MS method. […] Based on the chromatographic retention times and mass spectral patterns (m/z and mass errors) between the parent drug and their product ions, the structures of metabolites of GLB could be estimated, in spite of lacking standards of metabolites. […] Metabolites M1 and M2 were detected at shorter retention times (2.56 and 2.86 min, respectively), and heavier molecular ions as m/z 529 (497 + 32 Da) and 513 (497 + 16 Da), respectively.
Furthermore, under the tandem mass spectrometry positive scan mode condition, the parent compound GLB was detected as protonated molecular ions at m/z 499 ([M+H]+) and sodium adduct (520, [M+Na]+), and fragment ion m/z 441, respectively (Fig. 3C). The metabolite M1 was detected as protonated molecular ions at m/z 529 ([M+H]+) and sodium adduct (m/z […], [M+Na]+), and fragment ions m/z 457, 449, 435 and 401, respectively. […]
The structure identifications of GLB and its metabolites were analyzed using a validated ultra-performance liquid chromatography- electrospray ionization-quadrupole-time-of-flight mass spectrometry (UPLC-ESI-QTOF-MS) method, as described in previous publications. […]

Where [4] appears, read: Freezing storage −20 °C for 1 month, actual concentration 0.025 μg/mL.
Where [5] appears, read: Freezing storage −20 °C for 2 weeks, actual concentration 0.025 μg/mL.
Where [6] appears, read: Freezing storage −20 °C for 2 weeks, actual concentration 0.5 μg/mL.
Setting [7] is: Freezing storage −20 °C for 2 weeks, actual concentration 4 μg/mL.
[8] abbreviates: Light and room temperature for 24 hours, actual concentration 0.025 μg/mL.
Where [9] appears, read: Light and room temperature for 24 hours, actual concentration 0.5 μg/mL.
[10] abbreviates: Light and room temperature for 24 hours, actual concentration 4 μg/mL.
[11] abbreviates: Post-preparative, 4 °C for 1 week, actual concentration 0.025 μg/mL.
[12] abbreviates: Post-preparative, 4 °C for 1 week, actual concentration 0.5 μg/mL.
[13] abbreviates: Post-preparative, 4 °C for 1 week, actual concentration 4 μg/mL.
Where [14] appears, read: Post-preparative, 4 °C for 48 hours, actual concentration 0.025 μg/mL.
The mark [15] stands for this setting: Post-preparative, 4 °C for 48 hours, actual concentration 0.5 μg/mL.
The mark [16] stands for this setting: Post-preparative, 4 °C for 48 hours, actual concentration 4 μg/mL.

In the case of `CC(=O)N1N=C(c2ccc(Br)cc2)OC12C1OC(C)(C)OC1COC21COC(C)(C)O1` (centres unmarked) [GLB, Fructose-based 3-acetyl-2,3-dihydro-1,3,4-oxadiazole], the “Stability in rat plasma” value in data set [1] (24 hours, 48 hours and 1 week at 4 °C, 2 weeks, 1 month and 3 months at −20 °C, three freeze-thaw cycles) is listed as “stable”. In addition, the Measured concentration in data set [1] (Freeze-thawing 3 cycles (−20 °C), actual concentration 0.025 μg/mL) came to 0.025 ± 0.001 µg/mL; in data set [1] (Freeze-thawing 3 cycles (−20 °C), actual concentration 0.5 μg/mL) it was 0.467 ± 0.036 µg/mL; in data set [1] (Freeze-thawing 3 cycles (−20 °C), actual concentration 4 μg/mL), 3.732 ± 0.227 µg/mL; in data set [1] (setting [4]), 0.027 ± 0.002 µg/mL; in data set [1] (Freezing storage −20 °C for 1 month, actual concentration 0.5 μg/mL), 0.490 ± 0.015 µg/mL; in data set [1] (Freezing storage −20 °C for 1 month, actual concentration 4 μg/mL), 4.097 ± 0.213 µg/mL. Moreover, the Measured concentration in data set [1] (setting [5]) was 0.027 ± 0.001 µg/mL; in data set [1] (setting [6]), 0.535 ± 0.009 µg/mL; in data set [1] (setting [7]) it was 4.393 ± 0.090 µg/mL; in data set [1] (Freezing storage −20 °C for 3 months, actual concentration 0.025 μg/mL) it was 0.023 ± 0.002 µg/mL; in data set [1] (Freezing storage −20 °C for 3 months, actual concentration 0.5 μg/mL) it was 0.487 ± 0.003 µg/mL; in data set [1] (Freezing storage −20 °C for 3 months, actual concentration 4 μg/mL), 3.918 ± 0.063 µg/mL. In addition, the Measured concentration in data set [1] (setting [8]) turned out to be 0.026 ± 0.002 µg/mL; in data set [1] (setting [9]) it was 0.486 ± 0.027 µg/mL; in data set [1] (setting [10]), 3.922 ± 0.055 µg/mL; in data set [1] (setting [11]), 0.026 ± 0.001 µg/mL; in data set [1] (setting [12]), 0.428 ± 0.010 µg/mL; in data set [1] (setting [13]), 3.668 ± 0.219 µg/mL. The Measured concentration in data set [1] (setting [14]) is 0.026 ± 0.001 µg/mL; in data set [1] (setting [15]), 0.528 ± 0.007 µg/mL; in data set [1] (setting [16]), 4.233 ± 0.196 µg/mL. Also, the “Accuracy (RE, %)” value in data set [1] (setting [4]) is 8.66%; in data set [1] (setting [5]), 8.17%; in data set [1] (setting [6]), 7.10%; in data set [1] (setting [7]), 9.84%; in data set [1] (setting [8]) it was 4.17%; in data set [1] (setting [9]) it was −2.79%. Moreover, the “Accuracy (RE, %)” value in data set [1] (setting [10]) was −1.94%; in data set [1] (setting [11]), 3.83%; in data set [1] (setting [12]), −14.4%; in data set [1] (setting [13]) it was −8.30%; in data set [1] (setting [14]), 5.31%; in data set [1] (setting [15]), 5.62%. Moreover, the “Accuracy (RE, %)” value in data set [1] (setting [16]) turned out to be 5.83%. Moreover, in the data set with thymidine phosphorylase, the Thymidine phosphorylase inhibition result was “thymidine phosphorylase inhibitor”. In addition, the “Effect on tumor angiogenesis, growth and metastasis” value in data set [2] was “block the tumor angiogenesis, growth and metastasis in vivo”.

`CC(=O)N1N=C(c2ccc(Br)cc2)OC1(C1OC(C)(C)OC1C(=O)O)C1(O)COC(C)(C)O1` (centres unmarked) [M1]: in data set [3], the “Identification (metabolic modification of GLB)” value was “Di-hydroxylation”.
